Test results as given in US8778929B2, “Substituted heteroaryl inhibitors of B-RAF” (Boehringer Ingelheim International GmbH, priority 2008, dated 2014).

The compounds below were run against B-Raf (V600E)-kinase (Homo sapiens, UniProt P15056, V600E) (assay: Kinase test B-Raf (V600E)). Conditions: compound concentration 2 μM; 100% = no inhibition, 0% = total inhibition; read-out: % CTL (residual activity of the enzyme relative to DMSO control).
Chain of B-Raf (V600E)-kinase (P15056 whole entry V600E): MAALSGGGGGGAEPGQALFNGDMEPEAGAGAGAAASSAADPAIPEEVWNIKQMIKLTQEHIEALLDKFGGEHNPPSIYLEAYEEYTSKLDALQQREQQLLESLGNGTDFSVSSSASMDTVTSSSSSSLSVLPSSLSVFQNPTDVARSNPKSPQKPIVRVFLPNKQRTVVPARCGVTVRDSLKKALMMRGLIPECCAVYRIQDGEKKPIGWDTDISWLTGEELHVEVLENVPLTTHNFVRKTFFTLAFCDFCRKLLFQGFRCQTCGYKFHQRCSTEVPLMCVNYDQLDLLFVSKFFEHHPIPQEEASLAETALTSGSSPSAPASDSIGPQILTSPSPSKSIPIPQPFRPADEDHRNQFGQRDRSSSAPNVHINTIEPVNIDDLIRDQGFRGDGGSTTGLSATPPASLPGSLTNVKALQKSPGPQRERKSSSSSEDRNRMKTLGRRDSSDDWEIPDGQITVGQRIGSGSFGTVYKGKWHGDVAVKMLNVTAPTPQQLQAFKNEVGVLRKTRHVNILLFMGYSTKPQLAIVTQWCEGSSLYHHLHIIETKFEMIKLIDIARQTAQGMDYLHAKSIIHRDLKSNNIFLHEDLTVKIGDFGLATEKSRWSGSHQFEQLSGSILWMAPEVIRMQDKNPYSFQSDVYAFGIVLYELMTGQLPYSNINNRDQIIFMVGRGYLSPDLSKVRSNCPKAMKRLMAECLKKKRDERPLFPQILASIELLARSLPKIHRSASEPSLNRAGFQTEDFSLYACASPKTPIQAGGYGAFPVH
Type: biochemical
Protocol: In a dilution series 10 μL of test substance solution are placed in a multiwell plate. The dilution series is selected so that generally a range of concentrations of 2 μM to 0.119 nM or 0.017 nM is covered. If necessary the initial concentration of 2 μM is changed to 50 μM, 10 μM or 0.4 μM or 0.2857 μM and further dilution is carried out accordingly. The final concentration of DMSO is 5%. 10 μL of the B-Raf (V600E)-kinase solution are pipetted in (containing 0.5 ng B-Raf (V600E)-kinase in 20 mM Tris-HCl pH 7.5, 0.1 mM EDTA, 0.1 mM EGTA, 0.286 mM sodium orthovanadate, 10% glycerol, 1 mg/mL bovine serum albumin, 1 mM dithiothreitol) and the mixture is incubated for 1 h at RT under with shaking The kinase reaction is started by the addition of 20 μL ATP solution [final concentration: 250 μM ATP, 30 mM Tris-HCl pH 7.5, 0.02% Brij, 0.2 mM sodium orthovanadate, 10 mM magnesium acetate, 0.1 mM EGTA, phosphatase cocktail (Sigma, # P2850, dilution recommended by the manufacturer), 0.1 mM EGTA] and 10 μL MEK1 solution [containing 50 ng biotinylated MEK1 (prepared from purified MEK1 according to standard procedure, e.g. with EZ-Link Sulpho-NHS-LC-Biotin reagent, Pierce, # 21335) and carried out for 60 min at RT with constant shaking. The reaction is stopped by the addition of 12 μL of a 100 mM EDTA solution and incubation is continued for a further 5 min. 55 μL of the reaction solution are transferred into a streptavidin-coated plate (e.g. Streptawell HighBond, Roche, #11989685001) and shaken gently for 1 h at RT, in order to bind biotinylated MEK1 to the plate. After elimination of the liquid the plate is washed five times with 200 μL of 1×PBS and 100 μL solution of primary antibody plus europium-labelled secondary antibody [Anti Phospho-MEK (Ser217/221), Cell Signaling, # 9121 and Eu-N1 labeled goat-anti-rabbit antibody, Perkin Elmer, #AD0105], the primary antibody is diluted 1:2000 and the secondary antibody is diluted to 0.4-0.5 μg/mL in Delfia Assay Buffer (Perkin Elmer, #1244-111). After 1 h shaking at RT the solution is poured away and washed five times with 200 μL Delfia Wash Buffer (Perkin Elmer, #4010-0010/#1244-114). After the addition of 200 μL Enhancement Solution (Perkin Elmer, #4001-0010/#1244-105) the mixture is shaken for 10 min at RT and then measured in a Wallac Victor using the program “Delfia Time Resolved Fluorescence (Europium)”. IC50 values are obtained from these dosage-activity curves using a software program (GraphPadPrizm).
A value of 100% indicates no inhibition while a value of 0% indicates total inhibition. The % CTL values denote the residual activity of the enzyme after the addition of the inhibitory compound in the solvent DMSO in relation to the enzyme activity in the solvent DMSO without the addition of a compound (control). The values were determined using the B-Raf(V600E)-kinase test described above.
`Cc1ncc(C(=O)Nc2cc(CNCC(C)C)cc(C(F)(F)F)c2)cc1-n1cc(-c2cnn(C)c2C)nn1` [Example I-108] gave a remaining activity at 2 µM of 1.7%.
With `COCCN(C)Cc1cc(NC(=O)c2cnc(C)c(-n3cc(-c4cnn(C)c4C)nn3)c2)cc(C(F)(F)F)c1` [Example I-109] the remaining activity at 2 µM was 1.8%.
`CNCc1cc(NC(=O)c2cnc(C)c(-n3cc(-c4cnn(C)c4C)nn3)c2)cc(C(F)(F)F)c1` [Example I-110] showed a remaining activity at 2 µM of 1.3%.
Work on `Cc1ncc(C(=O)Nc2cc(CNC3CC3)cc(C(F)(F)F)c2)cc1-n1cc(-c2cnn(C)c2C)nn1` [Example I-111] yielded a remaining activity at 2 µM of 1.8%.
`COCCN(C)Cc1cc(C(F)(F)F)cc(NC(=O)c2cnc(C)c(-n3cc(-c4cnn(C)c4C)nn3)c2)c1OC` [Example I-112] showed a remaining activity at 2 µM of 2%.
`COc1c(CO)cc(NC(=O)c2cnc(C)c(-n3cc(-c4cnn(C)c4C)nn3)c2)cc1C(F)(F)F` [Example I-113] gave a remaining activity at 2 µM of 2.9%.
Compound `Cc1ncc(C(=O)Nc2cc(CO)c(Cl)c(C(F)(F)F)c2)cc1-n1cc(-c2cnn(C)c2C)nn1` [Example I-115] has a remaining activity at 2 µM of 1.9%.
For `COc1c(CN2CCCC2)cc(NC(=O)c2cnc(C)c(-n3cc(-c4cnn(C)c4C)nn3)c2)cc1C(F)(F)F` [Example I-116], the remaining activity at 2 µM was 3.1%.
`Cc1ncc(C(=O)Nc2cc(C(F)(F)F)cc(N3CCCOCC3)c2C)cc1-n1cc(-c2cnn(C)c2C)nn1` [Example I-118] showed a remaining activity at 2 µM of 2.6%.
`Cc1ncc(C(=O)Nc2cc(C(F)(F)F)cc(N(C)CCN(C)C)c2C)cc1-n1cc(-c2cnn(C)c2C)nn1` [Example I-119] showed a remaining activity at 2 µM of 1.8%.
For `CCN1CCN(c2cc(C(F)(F)F)cc(NC(=O)c3cnc(C)c(-n4cc(-c5cnn(C)c5C)nn4)c3)c2C)CC1` [Example I-120], the remaining activity at 2 µM was 1.7%.
Compound `Cc1ncc(C(=O)Nc2cc(C(F)(F)F)cc(N3CCOCC3)c2C)cc1-n1cc(-c2cnn(C)c2C)nn1` [Example I-122] has a remaining activity at 2 µM of 1.8%.
`Cc1ncc(C(=O)Nc2cc(CN3CCCC3)cc(C(F)(F)F)c2)cc1-n1cc(-c2cncs2)nn1` [Example I-123] was tested, and the remaining activity at 2 µM was 5.8%.
For `Cc1ncc(C(=O)Nc2cc(OC(F)(F)F)cc(N3CCN(C)CC3)c2)cc1-n1cc(-c2cncnc2)nn1` [Example I-124], the remaining activity at 2 µM was 1.9%.
For `Cc1ncc(C(=O)Nc2cc(C3=CCN(C)CC3)c(C)c(C(F)(F)F)c2)cc1-n1cc(-c2cnn(C)c2C)nn1` [Example I-125], the remaining activity at 2 µM was 1.2%.
For `Cc1ncc(C(=O)Nc2cc(C3=CCNCC3)c(C)c(C(F)(F)F)c2)cc1-n1cc(-c2cnn(C)c2C)nn1` [Example I-126], the remaining activity at 2 µM was 5.7%.
Work on `Cc1ncc(C(=O)Nc2cc(CN3CCCC3)c(Cl)c(C(F)(F)F)c2)cc1-n1cc(-c2cncs2)nn1` [Example I-127] yielded a remaining activity at 2 µM of 6.1%.
In the case of `Cc1ncc(C(=O)Nc2cc(N3CCN(C)CC3)c(F)c(C(F)(F)F)c2)cc1-n1cc(-c2cncs2)nn1` [Example I-128], the remaining activity at 2 µM is reported as 5.3%.
`Cc1ncc(C(=O)Nc2cc(CN3CCCC3)c(C)c(C(F)(F)F)c2)cc1-n1cc(-c2cnn(C)c2C)nn1` [Example I-130] showed a remaining activity at 2 µM of 2.2%.
Work on `Cc1ncc(C(=O)Nc2cc(CNCC(C)C)c(C)c(C(F)(F)F)c2)cc1-n1cc(-c2cnn(C)c2C)nn1` [Example I-131] yielded a remaining activity at 2 µM of 2.2%.
`Cc1ncc(C(=O)Nc2cc(CNC(C)C)c(C)c(C(F)(F)F)c2)cc1-n1cc(-c2cnn(C)c2C)nn1` [Example I-132] was tested, and the remaining activity at 2 µM was 1%.
For `CCN1CCN(c2cncc(-c3cn(-c4cc(C(=O)Nc5cc(C(C)(C)C)on5)cnc4C)nn3)c2)CC1` [Example I-134], the remaining activity at 2 µM was 2.6%.
`COCCN1CCN(c2cncc(-c3cn(-c4cc(C(=O)Nc5cc(C(C)(C)C)on5)cnc4C)nn3)c2)CC1` [Example I-135] gave a remaining activity at 2 µM of 2.6%.
`Cc1ncc(C(=O)Nc2cc(C(C)(C)C)on2)cc1-n1cc(-c2cncc(N3CCC(N4CCOCC4)CC3)c2)nn1` [Example I-136] showed a remaining activity at 2 µM of 2.5%.
`Cc1ncc(C(=O)Nc2cc(C(C)(C)C)on2)cc1-n1cc(-c2cncc(N3CCN(CC4CC4)CC3)c2)nn1` [Example I-137] showed a remaining activity at 2 µM of 2.5%.
Compound `Cc1ncc(C(=O)Nc2cc(C(C)(C)C)on2)cc1-n1cc(-c2cncc(NCCN(C)C)c2)nn1` [Example I-138] has a remaining activity at 2 µM of 2.5%.
For `Cc1ncc(C(=O)Nc2cc(C(C)(C)C)on2)cc1-n1cc(-c2cncc(N3CCC(N4CCCCC4)CC3)c2)nn1` [Example I-139], the remaining activity at 2 µM was 2.5%.
Work on `Cc1ncc(C(=O)Nc2cc(C(C)(C)C)on2)cc1-n1cc(-c2cncc(N3CCN(C(C)C)CC3)c2)nn1` [Example I-140] yielded a remaining activity at 2 µM of 2.2%.
`Cc1ncc(C(=O)Nc2cc(C(C)(C)C)on2)cc1-n1cc(-c2cncc(N(C)CCN(C)C)c2)nn1` [Example I-141] showed a remaining activity at 2 µM of 2.1%.
`Cc1ncc(C(=O)Nc2ccc(Cl)c(C(F)(F)F)c2)cc1-n1cc(-c2cncc(N3CCN(C)CC3)c2)nn1` [Example I-142] was tested, and the remaining activity at 2 µM was 1.5%.
`Cc1ncc(C(=O)Nc2cc(C(C)(C)C)on2)cc1-n1cc(-c2cncc(N3CC[C@@H](N(C)C)C3)c2)nn1` [Example I-143] gave a remaining activity at 2 µM of 2.2%.
`Cc1ncc(C(=O)Nc2cc(C(F)(F)F)ccn2)cc1-n1cc(-c2cncc(N3CCN(C)CC3)c2)nn1` [Example I-144] gave a remaining activity at 2 µM of 1.9%.
For `Cc1ncc(C(=O)Nc2cc(C(C)(C)C)on2)cc1-n1cc(-c2cncc(N3CC[C@H](N(C)C)C3)c2)nn1` [Example I-145], the remaining activity at 2 µM was 2.2%.
Work on `COc1ccc(NC(=O)c2cnc(C)c(-n3cc(-c4cncc(N5CCN(C)CC5)c4)nn3)c2)cc1C(F)(F)F` [Example I-146] yielded a remaining activity at 2 µM of 2%.
In the case of `Cc1ncc(C(=O)Nc2ccc(Cl)c(C(C)(C)C)c2)cc1-n1cc(-c2cncc(N3CCN(C)CC3)c2)nn1` [Example I-147], the remaining activity at 2 µM is reported as 3.1%.
Compound `Cc1ncc(C(=O)Nc2nc(C(C)(C)C)cs2)cc1-n1cc(-c2cncc(N3CCN(C(C)C)CC3)c2)nn1` [Example I-148] has a remaining activity at 2 µM of 4%.
For `Cc1ncc(C(=O)Nc2cn(C(C)C)nn2)cc1-n1cc(-c2cncc(N3CCN(C(C)C)CC3)c2)nn1` [Example I-149], the remaining activity at 2 µM was 2.1%.
`Cc1ncc(C(=O)Nc2cnn(C(C)C)c2)cc1-n1cc(-c2cncc(N3CCN(C(C)C)CC3)c2)nn1` [Example I-150] gave a remaining activity at 2 µM of 4.1%.
Compound `Cc1ncc(C(=O)Nc2cnn(C(C)C)c2C)cc1-n1cc(-c2cncc(N3CCN(C(C)C)CC3)c2)nn1` [Example I-151] has a remaining activity at 2 µM of 4.5%.
Work on `Cc1ncc(C(=O)Nc2cc(C(F)(F)F)ccn2)cc1-n1cc(-c2cncc(N3CCN(C(C)C)CC3)c2)nn1` [Example I-152] yielded a remaining activity at 2 µM of 2.4%.
For `Cc1ncc(C(=O)Nc2nnc(C(C)(C)C)s2)cc1-n1cc(-c2cncc(N3CCN(C(C)C)CC3)c2)nn1` [Example I-153], the remaining activity at 2 µM was 1.8%.
`Cc1ncc(C(=O)Nc2cc(C(C)C)no2)cc1-n1cc(-c2cncc(N3CCN(C(C)C)CC3)c2)nn1` [Example I-154] gave a remaining activity at 2 µM of 2.9%.
Compound `Cc1ncc(C(=O)Nc2cc(C(C)(C)C)ncn2)cc1-n1cc(-c2cncc(N3CCN(C(C)C)CC3)c2)nn1` [Example I-155] has a remaining activity at 2 µM of 2.6%.
Compound `CCCN1CCN(c2cncc(-c3cn(-c4cc(C(=O)Nc5cc(C(C)(C)C)on5)cnc4C)nn3)c2)CC1` [Example I-164] has a remaining activity at 2 µM of 9.9%.
`Cc1ncc(C(=O)Nc2cc(C(C)(C)C)on2)cc1-n1cc(-c2cncc(N3CCN(C4CC4)CC3)c2)nn1` [Example I-165] gave a remaining activity at 2 µM of 8.9%.
With `Cc1ncc(C(=O)Nc2cc(C(C)(C)C)on2)cc1-n1cc(-c2cncc(N3CCN(C4CCCC4)CC3)c2)nn1` [Example I-166] the remaining activity at 2 µM was 7.9%.

Same assay, conditions: measurement at 1.02 μM (**); 100% = no inhibition, 0% = total inhibition; read-out: % CTL (residual activity of the enzyme relative to DMSO control)
Compound `Cc1ncc(C(=O)Nc2cc(C(F)(F)F)cc(N3CCCCC3)c2C)cc1-n1cc(-c2cnn(C)c2C)nn1` [Example I-114] has a remaining activity at 1.02 µM of 15.6%.

Same assay, conditions: measurement at 1.43 μM (***); 100% = no inhibition, 0% = total inhibition; read-out: % CTL (residual activity of the enzyme relative to DMSO control)
For `Cc1ncc(C(=O)Nc2cc(C(F)(F)F)cc(N3CCCC3)c2C)cc1-n1cc(-c2cnn(C)c2C)nn1` [Example I-121], the remaining activity at 1.43 µM was 2.3%.
